ChEMBL document CHEMBL1201862, “PubChem BioAssay data set” (2004)
Calls of active or inactive are those of the source.

Key:
[1] = molecular target: T1, Rac GTPase-activating protein 1 (Homo sapiens, UniProt Q9H0H5); test: MgcRacGAP GTPase-activating activity inhibitors, confirmation, biochemical, ADP Hunter fluorescence, primary and confirmatory (AID 624330); type: functional
T1 sequence (Q9H0H5 whole entry): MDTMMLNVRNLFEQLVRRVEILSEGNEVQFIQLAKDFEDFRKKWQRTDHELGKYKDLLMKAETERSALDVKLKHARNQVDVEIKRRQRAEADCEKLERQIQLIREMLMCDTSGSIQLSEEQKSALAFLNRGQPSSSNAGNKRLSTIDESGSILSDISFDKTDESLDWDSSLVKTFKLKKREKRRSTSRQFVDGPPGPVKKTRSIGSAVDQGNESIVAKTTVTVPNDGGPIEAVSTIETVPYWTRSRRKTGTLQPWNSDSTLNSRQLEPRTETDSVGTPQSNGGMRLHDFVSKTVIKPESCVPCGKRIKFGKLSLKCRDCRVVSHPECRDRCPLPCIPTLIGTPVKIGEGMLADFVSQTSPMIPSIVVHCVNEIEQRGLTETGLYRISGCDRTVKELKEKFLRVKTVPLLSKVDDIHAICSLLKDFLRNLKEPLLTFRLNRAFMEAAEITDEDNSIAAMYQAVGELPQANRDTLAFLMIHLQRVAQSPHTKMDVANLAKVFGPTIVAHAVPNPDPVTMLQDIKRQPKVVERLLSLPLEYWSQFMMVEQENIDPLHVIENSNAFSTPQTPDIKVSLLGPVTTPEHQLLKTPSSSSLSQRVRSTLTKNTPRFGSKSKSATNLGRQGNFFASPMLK

[2] = test system: H4; test: Luminescence Cell-Based Dose Response HTS to Identify Activators of 5'UTR Stem-Loop Driven Prion Protein mRNA Translation in H4 Neuroglioblastoma Cells. [Related pubchem assays: 1829 (Project Summary), 1814 (Primary HTS)]; type: functional; conditions: Homo sapiens
[3] = Luminescence Cell-Based Dose Response HTS to Identify Activators of Luciferase Translation or Activity in H4 […] Cells. [Related pubchem assays: 1829 (Project Summary), 1814 (Primary HTS)]; type: functional
[4] = molecular target: T2, Corticotropin-releasing factor receptor 2/Corticotropin-releasing factor-binding protein (Homo sapiens, UniProt P24387+Q13324); test: activators of CRF receptor 2 with binding protein – uHTS hits, confirmation (AID 602473); type: functional; conditions: read-out: EC50_Mean
T2 sequence (Q13324 whole entry): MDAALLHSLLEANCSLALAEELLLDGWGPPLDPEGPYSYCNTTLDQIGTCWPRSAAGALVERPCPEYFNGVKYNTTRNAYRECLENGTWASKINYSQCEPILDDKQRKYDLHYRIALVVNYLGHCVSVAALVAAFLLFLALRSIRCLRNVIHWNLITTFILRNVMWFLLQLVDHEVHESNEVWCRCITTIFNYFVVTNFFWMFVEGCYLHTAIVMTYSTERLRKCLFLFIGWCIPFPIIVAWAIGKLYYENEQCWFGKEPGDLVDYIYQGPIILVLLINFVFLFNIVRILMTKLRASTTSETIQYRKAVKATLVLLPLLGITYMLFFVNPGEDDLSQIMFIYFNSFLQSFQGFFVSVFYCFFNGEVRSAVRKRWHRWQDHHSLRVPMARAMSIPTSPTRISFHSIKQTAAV
T2 sequence (P24387 whole entry): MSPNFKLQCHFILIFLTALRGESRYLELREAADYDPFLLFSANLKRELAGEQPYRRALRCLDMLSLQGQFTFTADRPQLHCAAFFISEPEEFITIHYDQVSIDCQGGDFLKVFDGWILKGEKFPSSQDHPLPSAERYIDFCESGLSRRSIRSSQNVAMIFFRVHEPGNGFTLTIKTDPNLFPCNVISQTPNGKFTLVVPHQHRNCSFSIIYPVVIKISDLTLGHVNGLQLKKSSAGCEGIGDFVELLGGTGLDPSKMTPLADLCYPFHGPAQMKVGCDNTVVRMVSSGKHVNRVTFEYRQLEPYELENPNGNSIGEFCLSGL

[5] = cytotoxicity toward NIH3T3 fibroblasts, dose response, counter-screen, cell-based, ATP luminescence, mouse fibroblasts (AID 2010); type: functional;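 note: cells exposed to compound for about 90 hours before reading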
[6] = molecular target: T2, Corticotropin-releasing factor receptor 2/Corticotropin-releasing factor-binding protein; test: Dose Response confirmation of uHTS hits for small molecule antagonists of the CRF-binding protein and CRF-R2 receptor complex.; type: functional; conditions: read-out: IC50_Mean
[7] = inhibitors of intracellular T. cruzi replication, confirmation, NIH3T3 host cells, beta-gal luminescence (AID 2044); type: functional, cell-based;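 note: intracellular parasites grown in NIH/3T3 mouse fibroblasts as host cells; luminescent beta-galactosidase reporter signal from transgenic T. cruzi replicating inside host cells; inhibitors lower the luminescence signal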
[8] = HEp-2 cell cytotoxicity, dose response, cytotoxicity control for RSV inhibitor project, HTS (AID 2410); type: functional; conditions: human respiratory syncytial virus
[9] = molecular target: Cytochrome P450 2C9 (Homo sapiens, UniProt P11712)
Chain of Cytochrome P450 2C9 (P11712 whole entry): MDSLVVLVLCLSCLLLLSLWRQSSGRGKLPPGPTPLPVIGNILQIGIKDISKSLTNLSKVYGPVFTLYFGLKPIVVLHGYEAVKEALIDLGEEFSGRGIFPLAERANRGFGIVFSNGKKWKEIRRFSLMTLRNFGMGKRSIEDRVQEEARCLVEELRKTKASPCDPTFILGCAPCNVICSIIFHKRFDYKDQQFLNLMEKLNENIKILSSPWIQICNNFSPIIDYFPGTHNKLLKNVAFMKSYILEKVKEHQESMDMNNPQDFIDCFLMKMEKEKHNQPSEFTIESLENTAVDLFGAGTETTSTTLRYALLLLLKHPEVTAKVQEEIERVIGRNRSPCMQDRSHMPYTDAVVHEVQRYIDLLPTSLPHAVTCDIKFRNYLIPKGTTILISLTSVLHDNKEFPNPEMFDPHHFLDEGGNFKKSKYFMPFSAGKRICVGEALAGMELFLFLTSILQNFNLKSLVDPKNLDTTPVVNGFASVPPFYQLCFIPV

[10] = molecular target: T3, Cytochrome P450 1A2 (Homo sapiens, UniProt P05177);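 note: PubChem cytochrome P450 panel assay, CYP1A2 panel member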
T3 sequence (P05177 whole entry): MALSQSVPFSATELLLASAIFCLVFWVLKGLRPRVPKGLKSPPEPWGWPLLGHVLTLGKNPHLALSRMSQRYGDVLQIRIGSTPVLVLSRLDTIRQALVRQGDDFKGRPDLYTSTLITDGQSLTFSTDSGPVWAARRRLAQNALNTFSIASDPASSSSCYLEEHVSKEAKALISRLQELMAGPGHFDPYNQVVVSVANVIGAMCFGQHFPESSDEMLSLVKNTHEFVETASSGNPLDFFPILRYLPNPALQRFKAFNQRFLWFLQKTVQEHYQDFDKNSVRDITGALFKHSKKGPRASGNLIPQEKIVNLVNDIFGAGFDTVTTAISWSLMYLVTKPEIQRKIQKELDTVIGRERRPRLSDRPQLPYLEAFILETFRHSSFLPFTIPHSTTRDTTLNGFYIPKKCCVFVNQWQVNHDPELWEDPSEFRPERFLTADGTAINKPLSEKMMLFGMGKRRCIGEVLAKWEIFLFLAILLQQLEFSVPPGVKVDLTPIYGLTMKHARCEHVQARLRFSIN

[11] = molecular target: Cytochrome P450 3A4 (Homo sapiens, UniProt P08684);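 note: CYP3A4 tested as one member of a cytochrome P450 panel screen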
Chain of Cytochrome P450 3A4 (P08684 whole entry): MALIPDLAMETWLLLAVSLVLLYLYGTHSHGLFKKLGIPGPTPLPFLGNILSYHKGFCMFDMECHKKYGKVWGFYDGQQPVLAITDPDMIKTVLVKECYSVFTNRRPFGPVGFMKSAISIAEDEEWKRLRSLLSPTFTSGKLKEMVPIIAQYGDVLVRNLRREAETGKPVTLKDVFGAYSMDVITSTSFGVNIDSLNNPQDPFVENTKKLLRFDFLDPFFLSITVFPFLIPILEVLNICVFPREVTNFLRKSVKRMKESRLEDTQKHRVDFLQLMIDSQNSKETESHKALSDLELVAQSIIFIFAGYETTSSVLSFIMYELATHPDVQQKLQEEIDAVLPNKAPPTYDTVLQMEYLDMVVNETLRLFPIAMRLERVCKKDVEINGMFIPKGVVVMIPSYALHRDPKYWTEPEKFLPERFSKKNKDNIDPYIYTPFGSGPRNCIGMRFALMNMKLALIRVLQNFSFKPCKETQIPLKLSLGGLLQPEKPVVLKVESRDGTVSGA

[12] = P. falciparum Dd2 growth inhibitors, dose response, SYBR Green, cherry-picked samples (AID 1159567); type: functional, cell-based
[13] = molecular target: Cytochrome P450 2C19 (Homo sapiens, UniProt P33261); test: Cytochrome panel assay with activity outcomes. Panel member name: p450-cyp2c19 Compounds with AC50 equal or less than 10 uM are considered active; type: functional
Chain of Cytochrome P450 2C19 (P33261 whole entry): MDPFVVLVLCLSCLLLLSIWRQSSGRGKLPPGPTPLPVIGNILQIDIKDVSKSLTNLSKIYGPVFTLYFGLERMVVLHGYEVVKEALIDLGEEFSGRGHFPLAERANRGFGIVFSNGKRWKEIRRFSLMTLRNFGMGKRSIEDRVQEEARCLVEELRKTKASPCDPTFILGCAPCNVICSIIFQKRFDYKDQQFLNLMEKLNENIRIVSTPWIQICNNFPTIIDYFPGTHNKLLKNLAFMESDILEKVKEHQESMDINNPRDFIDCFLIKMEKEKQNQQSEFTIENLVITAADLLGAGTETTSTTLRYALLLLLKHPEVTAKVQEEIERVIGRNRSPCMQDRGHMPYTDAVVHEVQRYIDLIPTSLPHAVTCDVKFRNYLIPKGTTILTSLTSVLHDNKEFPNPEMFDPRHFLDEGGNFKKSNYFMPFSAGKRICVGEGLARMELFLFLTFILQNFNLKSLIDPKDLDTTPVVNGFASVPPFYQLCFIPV

[14] = molecular target: Cytochrome P450 2D6 (Homo sapiens, UniProt P10635);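 note: CYP2D6 member of a cytochrome P450 panel assay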
Chain of Cytochrome P450 2D6 (P10635 whole entry): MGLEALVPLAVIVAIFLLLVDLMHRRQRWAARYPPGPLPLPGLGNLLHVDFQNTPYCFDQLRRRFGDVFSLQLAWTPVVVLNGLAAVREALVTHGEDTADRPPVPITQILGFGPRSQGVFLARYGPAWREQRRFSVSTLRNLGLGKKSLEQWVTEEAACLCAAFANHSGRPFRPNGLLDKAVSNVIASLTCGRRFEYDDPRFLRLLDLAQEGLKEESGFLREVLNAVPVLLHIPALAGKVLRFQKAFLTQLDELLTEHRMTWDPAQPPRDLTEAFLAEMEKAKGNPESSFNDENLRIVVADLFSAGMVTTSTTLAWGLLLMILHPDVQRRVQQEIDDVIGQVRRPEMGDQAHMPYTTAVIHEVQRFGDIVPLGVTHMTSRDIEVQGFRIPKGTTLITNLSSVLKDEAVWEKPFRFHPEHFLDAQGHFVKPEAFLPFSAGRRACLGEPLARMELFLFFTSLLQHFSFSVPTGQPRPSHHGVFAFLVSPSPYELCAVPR

[15] = Shn3 3'UTR reporter inhibitors, dose response, cell-based, Clone20 osteoblasts, firefly luciferase, cherry-picked (AID 624132); type: functional;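 note: firefly luciferase luminescence from reporter carrying the Shn3 3'UTR in osteoblasts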

SMILES: c1cc(CN2CCN(C3CCCCCC3)CC2)ccn1
- IC50 [1]: 92 µM (active)

SMILES: COc1cccc(CN2CCN(Cc3cc(OC)c(OC)c(OC)c3)CC2)c1OC
- IC50 [1]: 74.8 µM (active)

SMILES: COc1ccc(N2C(=O)CC(Sc3nc(C)cc(C)c3C#N)C2=O)cc1 (centres undefined)
- EC50 [2]: 25.4 µM (active)
- EC50 [3]: 14.6 µM (active)

SMILES: O=C(Nc1ccccc1)c1sccc1Oc1ccc([N+](=O)[O-])cc1F
- EC50 [4]: > 53 µM (inactive)
- EC50 [5]: > 60 µM (not active)
- IC50 [6]: > 47.1 µM (inactive)
- EC50 [7]: 1.42 µM (active)

SMILES: COc1ccc(S(=O)(=O)N2CCC(N3CCN(c4ccccc4OC)CC3)CC2)cc1
- IC50 [1]: 121 µM (active)

SMILES: c1ccc(CNC2=NN=C(c3ccccc3)CS2)cc1
- EC50 [2]: 24.2 µM (active)
- EC50 [3]: 0.293 µM (active)

SMILES: c1cncc(-c2nn3c(Cn4nnc5ccccc54)nnc3s2)c1
- CC50 [8]: > 50 µM (active)

SMILES: Cc1nc2ccccn2c1C(=O)C1=C(O)C(=O)N(CCN2CCOCC2)C1c1cccnc1 (centres undefined)
- AC50 [9]: 17.8 µM (inconclusive)

SMILES: O=S(=O)(c1ccccc1)N1CCC[C@@]2(CCN(c3ccccc3)C2)C1
- AC50 [9]: 2.51 µM (inconclusive)

SMILES: O=C(O)Cn1cc(/C=C2\C(=O)NC(=O)N(c3ccc(Cl)cc3)C2=O)c2ccccc21
- IC50 [1]: 255 µM (active)

SMILES: CCc1cc(-c2[nH]nc(CCC(=O)O)c2-c2nc3ccccc3n2C)c(O)cc1O
- IC50 [1]: 122 µM (active)

SMILES: Cc1nc(SCC(=O)NCCc2ccccc2)c2oc3ccccc3c2n1
- AC50 [10]: 0.562 µM (inconclusive)
- AC50 [11]: 39.8 µM (inconclusive)
- AC50 [9]: 0.398 µM (inconclusive)

SMILES: CCC/C(=N\NC(=O)C1CC1)c1ccccc1
- EC50 [4]: > 53 µM (inactive)
- IC50 [6]: > 47.1 µM (inactive)

SMILES: O=C(C1CCCC1)N1CC(=O)N2[C@H](C1)[C@@H](c1ccc(C#CCc3ccccc3)cc1)[C@@H]2CO
- AC50 [12]: 4.51 µM (active)

SMILES: CC(C)(C)[S@@+]([O-])N1Cc2cc(C(=O)N[C@@H]3CCN(Cc4ccccc4)C3)nc(-c3cccc(-c4ccncc4)c3)c2[C@H]1CCO
- AC50 [12]: 6.63 µM (active)

SMILES: Cc1ccc(C(=O)NCC2CCCO2)cc1N1CCCC1=O (centres undefined)
- AC50 [9]: 2.82 µM (inconclusive)
- AC50 [13]: inconclusive

SMILES: Cc1c(N2C(=O)/C(=C3/C(=O)N(C)c4ccccc43)SC2=S)c(=O)n(-c2ccccc2)n1C
- AC50 [10]: 25.1 µM (inconclusive)
- AC50 [11]: 15.8 µM (inconclusive)
- AC50 [14]: 7.94 µM (inconclusive)
- AC50 [9]: 12.6 µM (inconclusive)

SMILES: O=C(Nc1nc(-c2ccc(Cl)cc2)cs1)NC1CCCCC1
- CC50 [8]: 20.3 µM (active)

SMILES: O=C(C(c1ccccc1)c1ccccc1)N1CCN(CCN2C(=O)c3cccc4cccc(c34)C2=O)CC1
- EC50 [4]: > 53 µM (inactive)
- IC50 [6]: > 47.1 µM (inactive)

SMILES: COc1ccc(CN(C(=O)CSc2nnc(-c3ccc(F)cc3)o2)c2ccc(F)cc2)cc1
- AC50 [15]: 43.4 µM (active)

SMILES: CCCN1Cc2cccc(C(=O)NCc3cccs3)c2C1=O
- EC50 [4]: > 53 µM (inactive)
- IC50 [6]: > 47.1 µM (inactive)

SMILES: Cc1ccc(C2(C)NC(=O)N(CC(=O)Nc3ccc(-c4nc5ccc(C)cc5s4)cc3)C2=O)cc1 (centres undefined)
- CC50 [8]: 41.5 µM (active)

SMILES: COc1ccc(Oc2ncc3nc(-c4cccc(C#N)c4)c(=O)n(Cc4cccc(OC)c4)c3n2)cc1
- AC50 [9]: 2.51 µM (inconclusive)

SMILES: COCC(=O)Nc1ccc2c(c1)C(=O)N(C)C[C@H](OC)[C@H](C)CN(Cc1cccc(F)c1)[C@@H](C)CO2
- AC50 [12]: 5.34 µM (active)

SMILES: COc1ccc(-n2c(=O)c(C)nc3cnc(Oc4cccc(Cl)c4)nc32)cc1
- AC50 [11]: 3.16 µM (inconclusive)
- AC50 [14]: 25.1 µM (inconclusive)
- AC50 [9]: 25.1 µM (inconclusive)
- AC50 ([13]; read-out: AC50): 39.8 µM (inconclusive)

SMILES: Cc1ccnc(NC(=O)c2ccc(NC(=O)c3ccco3)cc2)c1
- EC50 [2]: 11.9 µM (active)
- EC50 [3]: 1.37 µM (active)

SMILES: COC(=O)c1sccc1-c1ccc(C(N)=O)o1
- CC50 [8]: 44 µM (active)

SMILES: C=CCOc1nc2c(c(=O)n(Cc3ccc(Cl)c(Cl)c3)c(=O)n2C)n1C
- EC50 [4]: > 53 µM (inactive)
- IC50 [6]: > 47.1 µM (inactive)

SMILES: Cc1cc(C=C(C#N)C#N)c(C)n1-c1ccccc1
- AC50 [10]: 2.24 µM (inconclusive)
- AC50 [9]: 1.12 µM (inconclusive)

SMILES: Cc1nn2c(N)c(-c3ccccc3)cnc2c1-c1ccc(Cl)cc1
- EC50 [4]: > 53 µM (inactive)
- IC50 [6]: > 47.1 µM (inactive)

SMILES: Cc1cc(OCCCN2CCN(Cc3ccccc3)CC2)ccc1[N+](=O)[O-]
- IC50 [1]: 62 µM (active)
- EC50 [5]: > 60 µM (inconclusive)
- EC50 [7]: 0.156 µM (active)

SMILES: CC(=O)Nc1ccc(OCC[n+]2cccc(C(N)=O)c2)cc1
- EC50 [4]: > 53 µM (inactive)
- IC50 [6]: > 47.1 µM (inactive)

SMILES: COc1ccc(-c2nc3cnc(OC)nc3n(Cc3cccc(OC)c3)c2=O)cc1
- AC50 [9]: 3.16 µM (inconclusive)

SMILES: CCn1c(=O)n(CC)c2cc(N3CCCC3)c(NC(=O)c3ccccc3)cc21
- IC50 [1]: 91 µM (active)

SMILES: CCN1CCN(CCOc2cccc(Cl)c2Cl)CC1
- IC50 [1]: 70.4 µM (active)
- EC50 [5]: > 60 µM (not active)
- EC50 [7]: 0.151 µM (active)

SMILES: CCC(C)C1N=C(c2ccccc2)c2cc(Cl)ccc2N(CC(=O)NCc2ccco2)C1=O (centres undefined)
- EC50 [4]: > 53 µM (inactive)
- IC50 [6]: > 47.1 µM (inactive)

SMILES: C=CC[C@@H]1C=C[C@H](O/N=C(\C)CCN2CCc3nc(-c4ccccc4)c(-c4ccccc4)cc3C2)[C@H](CO)O1
- AC50 [9]: 0.0794 µM (inconclusive)

SMILES: CCCCNC(=O)CSc1nc2ccccc2c(=O)n1CCNC(C)=O
- AC50 [9]: 22.4 µM (inconclusive)

SMILES: CC(=O)Nc1ccc2[nH]c(C3CCCCC3)nc2c1
- AC50 [9]: 17.8 µM (inconclusive)
- AC50 [13]: inconclusive

SMILES: N#C/C(=C(/O)COC(=O)COc1cccc(Br)c1)c1nc2ccccc2[nH]1
- EC50 [4]: > 53 µM (inactive)
- IC50 [6]: > 47.1 µM (inactive)
